# Like-named read-outs stand apart in the source and are kept apart here.
# Assays:
# [1] = test system: reagin-mediated rat Passive Cutaneous Anaphylaxis (PCA); assay: Reagin-mediated rat Passive Cutaneous Anaphylaxis (PCA) screening test; format: in vivo, Sprague-Dawley rats
# Protocol: The reagin-mediated rat Passive Cutaneous Anaphylaxis (PCA) screening test used to evaluate the present compounds is generally regarded as one of the best animal models for use in predicting the antiallergy activity of test compounds in man. Briefly, the method consists of passive sensitization of skin sites on the test animals with reaginic antibodies followed after 24 hours by administration of the test drug and antigen challenge. The allergic response is measured by use of Evans' blue dye and is evaluated by the spot diameter at the injection side. Details of the test are provided below.
# A substituted ovalbumin antigen is used both as immunogen and challenging antigen. The antigen is prepared as follows: 500 mg. ovalbumin (EA) and 500 mg. K2 CO3 are dissolved in 25 ml. distilled H2 O and stirred at room temperature for 5 minutes. Five hundred (500) mg. dinitrobenzene sulfonic acid, Na^+ salt, (previously recrystallized from hot absolute ethanol) is then added slowly with continued stirring. The reaction mixture is then immediately placed in the dark and allowed to proceed for 2 hours with constant stirring. After 2 hours the mixture is placed in suitable dialysis tubing and dialyzed against 5 changes (4 liters each) of distilled H2 O at 5° C. After dialysis the product is lyophilized and stored at room temperature in a brown or amber container. The antigen obtained will appear as a light yellow, amorphous solid which is very soluble in water or saline. It is designated as DNP denatured ovalbumin (DNP-d EA).
# Adult, male Sprague-Dawley rats are used as a source or reagin-rich antisera for the PCA model. Immunization is by a combination of DNP-d EA on Al(OH)3 gel and B. pertussis vaccine. Preparation of the DNP-d EA - gel immunogen is as follows: Dissolve the DNP-d EA in TBS so as to give a concentration of 10 mg./ml. Slowly add 1 ml. of this solution to 10 ml. Al(OH)3 gel (10 mg. solids/ml.) with constant stirring at room temperature. Stir the mixture an additional 30 minutes to insure a uniform adsorption of antigen on gel.
# The resulting preparation is then used in combination with phase I B. pertussis vaccine to immunize male S/D rats as follows: For each rat administer 0.1 ml. DNP-d EA - gel suspension intramuscularly in each hind leg (200 μg DNP-d EA and 2 mg. gel total dose). Follow these injections by the intraperitoneal administration of 1.0 ml. B. pertussis vaccine (10-20 × 10^9 organisms). The use of light ether anesthesia during this procedure is recommended to insure proper intramuscular and intraperitoneal injections. Nine days following immunization (but no longer than 10) the animals are exsanguinated by cardiac puncture or abdominal aorta cannulation under ether or pentobarbital anesthesia. The collected whole blood is allowed to clot, the serum separated by centrifugation and the individual serum samples stored frozen until assayed for IgE content.
# Individual serum samples should be screened for reaginic antibody concentration before being pooled with other sera, as not all rats respond to immunization procedures with reagin production. A 1:50 saline dilution of serum from each immunized rat is used for this purpose. Intradermal injections of 0.05 ml. of the diluted sera are made in the shaven backs of two small female recipient rats, 100-120 gms. Several serum samples can be tested simultaneously in recipient animals. After a 24 to 48 hour latent period antigen challenge is accomplished by intravenous administration to each rat of 1 mg. DNP-d EA in 0.5 ml. 0.5% Evans' blue dye in saline. Sera which show positive PCA reactions at the 1:50 dilution, as measured 20 to 30 minutes post-challenge are pooled, dispensed in small aliquots and stored at -70° C. or lower until used. Negative sera may be discarded.
# The IgE titer of the antisera pool should then be determined. […]
# [2] = test system: release of mediators, e.g. histamine and SRS-A; conditions: administered to asthmatic patients prior to inhalation of specific antigens; cited from earlier work
# [3] = cited from earlier work
# [4] = po, 10 minutes prior to antigen challenge, Table 1, read-out: Rat PCA Test ID50, p.o. (dose of compound that inhibits 50% of the response)
# [5] = po, 10 minutes prior to antigen challenge, Table II and its footnote, read-out: Rat PCA Test ID50, p.o. (dose of compound that inhibits 50% of the response)
# [6] = iv, 1-5 minutes prior to antigen challenge (DSCG: at the time of antigen challenge), read-out: Rat PCA Test ID50, i.v. (dose of compound that inhibits 50% of the response)
smiles,measurement,setting,value
"COc1cc2c(cc1OC)-c1ncc(-c3nnn[nH]3)c(=O)n1CC2 [Example 24, 6,7-Dihydro-9,10-dimethoxy-3-(1H-tetrazol-5-yl)-4H-pyrimido[2,1-a]isoquinol-4-one]",ED50,[1]; [4],~0.03 mg/kg
"COc1ccc2c(c1)-c1ncc(C(=O)O)c(=O)n1CC2 [Example 11B, 6,7-dihydro-10-methoxy-4-oxo-4H-pyrimido[2,1-a]isoquinoline-3-carboxylicAcid]",ED50,[1]; [4],~0.48 mg/kg
"CCOC(=O)c1cnc2n(c1=O)CC(CC(OC)OC)c1ccc(OC)cc1-2 (racemic) [Example 22 (CH2 CH(OMe)2), Ethyl (±)-6,7-Dihydro-7-(2,2-dimethoxyethyl)-10-methoxy-4-oxo-4H-pyrimido[2,1-a]isoquinoline-3-carboxylate]",ED50,[1]; [4],~3.3 mg/kg
"CCOC(=O)c1cnc2n(c1=O)CC(CC=O)c1ccc(OC)cc1-2 (racemic) [Example 22 (CH2 CHO), Ethyl (±)-7-Formylmethyl-6,7-dihydro-10-methoxy-4-oxo-4H-pyrimido[2,1-a]isoquinoline-3-carboxylate]",ED50,[1]; [4],~20 mg/kg
"CCOC(=O)c1cnc2c3ccccc3ccn2c1=N [Example 3A, Ethyl 4-Imino-4H-pyrimido[2,1-a]isoquinoline-3-carboxylate]",ED50,[1]; [5],~0.19 mg/kg
"CCOC(=O)c1cnc2n(c1=O)CCc1cc(OC)c(OC)cc1-2 [Example 10C, ethyl 6,7-Dihydro-9,10-dimethoxy-4-oxo-4H-pyrimido[2,1-a]isoquinoline-3-carboxylate]",ED50,[1]; [4],~0.37 mg/kg
"COc1ccc2c(c1)CCn1c-2ncc(C(=O)O)c1=O [Example 11A, 6,7-dihydro-9-methoxy-4-oxo-4H-pyrimido[2,1-a]isoquinoline-3-carboxylic Acid]",ED50,[1]; [4],2.6 mg/kg
"COc1ccc2c(ccn3c(=O)c(C(=O)O)cnc23)c1 [Example 18, 9-Methoxy-4-oxo-4H-pyrimido[2,1-a]isoquinoline-3-carboxylic Acid]",ED50,[1]; [6],~1.5 mg/kg
"CCOC(=O)c1cnc2c3ccc(OC)cc3ccn2c1=O [Example 12, Ethyl 9-Methoxy-4-oxo-4H-pyrimido[2,1-a]isoquinoline-3-carboxylate]",ED50,[1]; [5],~31 mg/kg
"CCC1Cn2c(ncc(-c3nnn[nH]3)c2=O)-c2ccccc21 (racemic) [Example 23, (±)-7-Ethyl-6,7-dihydro-3-(1H-tetrazol-5-yl)-4H-pyrimido[2,1-a]isoquinol-4-one]",ED50,[1]; [4],0.1 mg/kg
"O=C(O)c1cnc2n(c1=O)CCc1ccc(O)cc1-2 [Example 19, 6,7-Dihydro-10-hydroxy-4-oxo-4H-pyrimido[2,1-a]isoquinoline-3-carboxylic Acid]",ED50,[1]; [4],~1.2 mg/kg
"O=C(O)c1cc(=O)c2c(OCC(O)COc3cccc4oc(C(=O)O)cc(=O)c34)cccc2o1 [DSCG, disodium cromoglycate, reference compound]",ED50,[1]; [6],0.6 mg/kg
same,ED50,[1]; [5],> 30 mg/kg
same,ED50,"[1]; po, DSCG dosed 30 minutes prior to challenge, Table 1, read-out: Rat PCA Test ID50, p.o. (DSCG)",> 30 mg/kg
same,"inhibition of release of mediators, e.g. histamine and SRS-A",[2],inhibits the release of mediators
same,oral absorption,[3],not orally absorbed
"CCOC(=O)c1cnc2c3ccccc3c(CC)cn2c1=O [Example 13B, ethyl 7-Ethyl-4-oxo-4H-pyrimido[2,1-a]isoquinoline-3-carboxylate]",ED50,[1]; [5],~5 mg/kg
"CCc1cn2c(=O)c(C(=O)O)cnc2c2ccccc12 [Example 17A, 7-ethyl-4-oxo-4H-pyrimido[2,1-a]isoquinoline-3-carboxylic Acid]",ED50,[1]; [6],~0.048 mg/kg
"COc1cc2c(cc1OC)-c1ncc(C(=O)O)c(=O)n1CC2 [Example 11D, 6,7-dihydro-9,10-dimethoxy-4-oxo-4H-pyrimido[2,1-a]isoquinoline-3-carboxylic Acid]",ED50,[1]; [4],~0.31 mg/kg
"COc1cc2ccn3c(=O)c(C(=O)O)cnc3c2cc1OC [Example 17B, 9,10-dimethoxy-4-oxo-4H-pyrimido[2,1-a]isoquinoline-3-carboxylic Acid]",ED50,[1]; [5],~0.01 mg/kg
"O=C(O)c1cnc2n(c1=O)CCc1ccccc1-2 [Example 7, 6,7-Dihydro-4-oxo-4H-pyrimido[2,1-a]isoquinoline-3-carboxylic Acid]",ED50,[1]; [4],7.9 mg/kg
"CCCc1cn2c(=O)c(C(=O)O)cnc2c2cc(OC)ccc12 [Example 17D, 10-methoxy-4-oxo-7-propyl-4H-pyrimido[2,1-a]isoquinoline-3-carboxylic Acid]",ED50,[1]; [6],~0.071 mg/kg
"O=C(O)c1cnc2c3ccccc3ccn2c1=O [2,3, 4-Oxo-4H-pyrimido[2,1-a]isoquinoline-3-carboxylic Acid]",ED50,[1]; [6],0.33 mg/kg
